Source: US7589057B2, “Oil-in-water method for making alpha-2 agonist polymeric drug delivery systems” (Allergan, Inc., priority 2004, dated 2009)
Converted amounts (≈) assume the structure as drawn.

Assays:
[1] = Solubility of bimatoprost in water; format: physicochemical; settings: room temperature
Description: (§1) FIGS. 2A, 2B, 2C, 2D, 2E, and 2F illustrate the chemical structure of bimatoprost (AGN 192024, FIG. 2A), 15β bimatoprost (FIG. 2B); 5,6-trans bimatoprost isomer (FIG. 2C); C1 acid of bimatoprost (FIG. 2D); triphenyphosphine oxide (TPPO; FIG. 2E); and 15-Keto bimatoprost (FIG. 2F). Bimatoprost is the active ingredient and the other chemicals are impurities that may be present. […] Bimatoprost is a non-ionizable compound.

[2] = format: physicochemical
Description: as §1

[3] = Ionisability of bimatoprost; format: physicochemical
Description: as §1

[4] = Effects of gamma sterilization on the stability of bimatoprost; format: physicochemical
Description: The formula abbreviations correspond to compounds illustrated in FIGS. 2A-2F. High performance liquid chromatography was used to quantify bimatoprost and impurities present in the microparticles. Analytes were eluted from a Waters Symmetry® C18 reverse-phase column using a mobile phase composed of 72/18/10 (water/acetonitrile/methanol v/v/v) containing 0.03% (w/v) trifluoroacetic acid. UV detection was performed at 210 nm.

CCNC(=O)CCC/C=C\C[C@@H]1[C@@H](/C=C/[C@@H](O)CCc2ccccc2)[C@H](O)C[C@@H]1O [Bimatoprost]
solubility [1]: 3200 µg/mL (≈ 7.7 mM) | partition coefficient Log P [2]: 2.4 plus or minus 0.1 | ionisability [3]: non-ionizable | % wt/wt 5,6-trans ([4]; gamma sterilized): 0.1 % wt/wt | % wt/wt 15β ([4]; gamma sterilized): 0.1 % wt/wt | % wt/wt bimatoprost ([4]; gamma sterilized): 85.3 % wt/wt | % wt/wt, 15-keto ([4]; gamma sterilized): 2.3 % wt/wt | decrease of the amount of active bimatoprost by gamma sterilization ([4]; gamma sterilized vs none sterilized): about 10% | % wt/wt 5,6-trans ([4]; none sterilized): 0.1 % wt/wt | % wt/wt 15β ([4]; none sterilized): 0.2 % wt/wt | % wt/wt bimatoprost ([4]; none sterilized): 95.3 % wt/wt | % wt/wt, 15-keto ([4]; none sterilized): 1.0 % wt/wt
